Results as given in US8841513B2, “Procedure for producing transgenic plants providing high starch content and yield and high amylose/amylopectin balance” (priority 2008, dated 2014).
Where two headings read alike, the source gives them in different places.

Experiments:
[1] = target: T1, GP of E. coli (Escherichia coli, UniProt P0AC86, E280D/L281V); experiment: Substrate specificity of GP of E. coli (products by HPLC with amperometric detection); assay type: biochemical
T1 construct: His tag (pET-15b) (N); made in house; host or cells: E. coli BL21 (DE3) C43 transformed with pET15b-glgP (CECT 7071)
Experimental: The enzymatic reactions were carried out at 37° C. GP activities were measured in the sense of the analysed polyglucan degradation. […] The reaction was stopped after boiling for 2 minutes and centrifuging at 30,000 g for 20 minutes. The existing released G1P in the supernatant was determined by any of the following methods: • By spectrophotometry. 300 μL of mixture containing Hepes 50 mM pH 7, EDTA 1 mM, MgCl2 2 mM, KCl 15 mM, NAD^+ 0.6 mM, a unit of phosphoglucomutase and another of glucose-6-phosphate dehydrogenase of Leuconostoc mesenteroides, and 30 μL of supernatant resulting from step one were incubated for 20 minutes. The production of NADH was monitored at 340 nm using a Multiskan EX spectrophotometer (Labsystems). […] 40 μL of the supernatant from step 1 were subjected to high affinity liquid chromatography using a DX-500 Dionex system fitted to a Carbo-Pac PA10 column and amperometric detection.

[2] = target: T1, GP of E. coli; assay type: biochemical
Experimental: The enzymatic reactions were carried out at 37° C. GP activities were measured in the sense of the analysed polyglucan degradation. In a first step, 50 μL of reaction mixture consisting of 50 mM HEPES (pH 7.5), 30 mM phosphate buffer (pH 7.5), polyglucan (equivalent to 10 mM glucose) and protein extract, were incubated for 15 minutes. The reaction was stopped after boiling for 2 minutes and centrifuging at 30,000 g for 20 minutes. The existing released G1P in the supernatant was determined by any of the following methods: • By spectrophotometry. 300 μL of mixture containing Hepes 50 mM pH 7, EDTA 1 mM, MgCl2 2 mM, KCl 15 mM, NAD^+ 0.6 mM, a unit of phosphoglucomutase and another of glucose-6-phosphate dehydrogenase of Leuconostoc mesenteroides, and 30 μL of supernatant resulting from step one were incubated for 20 minutes. The production of NADH was monitored at 340 nm using a Multiskan EX spectrophotometer (Labsystems). […] 40 μL of the supernatant from step 1 were subjected to high affinity liquid chromatography using a DX-500 Dionex system fitted to a Carbo-Pac PA10 column and amperometric detection.
The unit (U) is defined as the amount of enzyme that catalyzes the production of 1 μmol of product per minute.

[3] = glucan 5 mM glucose, 30 mM Pi, 3 U recombinant GP, 3 hours, 37° C.
[4] = effector 2 mM, GP activity, no effector = 100
[5] = effector 3 mM, GP activity, no effector = 100
[6] = cell without unit, glucan 5 mM glucose, 3 U recombinant GP, 3 hours, 37° C.

T1 sequence (P0AC86 other isoform, or with tags, fused parts or gaps E280D/L281V): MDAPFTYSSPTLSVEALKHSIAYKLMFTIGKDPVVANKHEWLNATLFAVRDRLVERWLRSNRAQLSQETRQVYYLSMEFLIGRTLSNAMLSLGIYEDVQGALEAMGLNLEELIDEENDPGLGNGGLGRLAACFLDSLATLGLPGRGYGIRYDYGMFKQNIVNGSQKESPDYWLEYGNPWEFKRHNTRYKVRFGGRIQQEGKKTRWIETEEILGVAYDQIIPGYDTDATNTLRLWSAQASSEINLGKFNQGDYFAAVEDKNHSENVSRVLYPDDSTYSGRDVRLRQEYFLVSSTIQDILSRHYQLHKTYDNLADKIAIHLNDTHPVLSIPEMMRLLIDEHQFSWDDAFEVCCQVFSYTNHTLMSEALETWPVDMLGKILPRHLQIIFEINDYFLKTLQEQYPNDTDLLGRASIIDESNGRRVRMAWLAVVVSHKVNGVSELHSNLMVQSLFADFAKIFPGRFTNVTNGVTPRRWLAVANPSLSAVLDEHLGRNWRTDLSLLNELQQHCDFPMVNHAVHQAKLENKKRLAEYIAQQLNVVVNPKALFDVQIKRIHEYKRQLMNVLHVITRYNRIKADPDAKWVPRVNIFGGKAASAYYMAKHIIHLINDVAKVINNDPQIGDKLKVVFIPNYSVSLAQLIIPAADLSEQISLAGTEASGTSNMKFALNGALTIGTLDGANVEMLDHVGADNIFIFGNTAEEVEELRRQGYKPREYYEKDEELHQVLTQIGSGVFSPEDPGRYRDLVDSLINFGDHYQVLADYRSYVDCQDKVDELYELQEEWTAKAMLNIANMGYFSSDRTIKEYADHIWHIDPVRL

Compound	Recognition as substrate by the GP of E. coli [1]	Products: G1P [1, 3]	Products: Maltose [1, 3]	Inhibition of the GP of E. coli [2]	Activity (U/mg protein) ([2]; effector 2 mM)	% control [2, 4]	Products: Maltotriose [1, 3]	also measured
OC[C@H]1O[C@H](O[C@H]2[C@H](O)[C@@H](O)C(O)O[C@@H]2CO)[C@H](O)[C@@H](O)[C@@H]1O (mixture of isomers) [Maltose]	does not act on	b.d.l.	5 mM	–	–	–	–	–
O=C(O)[C@H](O)COP(=O)(O)O [3-phosphoglycerate]	–	–	–	not to be inhibited	8.9 U/mg protein	111%	–	–
Nc1ncnc2c1ncn2[C@@H]1O[C@H](COP(=O)(O)OP(=O)(O)O[C@H]2O[C@H](CO)[C@@H](O)[C@H](O)[C@H]2O)[C@@H](O)[C@H]1O [ADPG, ADPglucose]	–	–	–	not to be inhibited	8.3 U/mg protein	104%	–	–
Nc1ncnc2c1ncn2[C@@H]1O[C@H](COP(=O)(O)OP(=O)(O)O)[C@@H](O)[C@H]1O [ADP]	–	–	–	not to be inhibited	7.0 U/mg protein	88%	–	–
Nc1ncnc2c1ncn2[C@@H]1O[C@H](COP(=O)(O)O)[C@@H](O)[C@H]1O [AMP]	–	–	–	not to be inhibited	–	–	–	Activity (U/mg protein) ([2]; effector 3 mM): 7.6 U/mg protein; % control [2, 5]: 95%
Nc1ncnc2c1ncn2[C@@H]1O[C@H](COP(=O)(O)OP(=O)(O)OP(=O)(O)O)[C@@H](O)[C@H]1O [ATP]	–	–	–	not to be inhibited	4.8 U/mg protein	60%	–	–
Nc1ncnc2c1ncn2[C@@H]1O[C@@H]2COP(=O)(O)O[C@H]2[C@H]1O [Cyclic AMP]	–	–	–	–	–	–	–	% control [2]: 91%; Activity (U/mg protein) [2]: 7.3 U/mg protein
O=C(COP(=O)(O)O)[C@@H](O)[C@H](O)[C@H](O)COP(=O)(O)O [Fructose-1,6-bisphosphate]	–	–	–	not to be inhibited	9.0 U/mg protein	113%	–	–
O=C(CO)[C@@H](O)[C@H](O)[C@H](O)COP(=O)(O)O [Fructose-6-phosphate]	–	–	–	not to be inhibited	8.4 U/mg protein	105%	–	–
O=C[C@H](O)[C@@H](O)[C@H](O)[C@H](O)COP(=O)(O)O [Glucose-6-phosphate]	–	–	–	not to be inhibited	7.6 U/mg protein	95%	–	–
OC[C@H]1O[C@H](O[C@H]2[C@H](O)[C@@H](O)[C@@H](O[C@H]3[C@H](O)[C@@H](O)[C@@H](O[C@H]4[C@H](O)[C@@H](O)[C@@H](O[C@H]5[C@H](O)[C@@H](O)[C@@H](O[C@H]6[C@H](O)[C@@H](O)[C@@H](O[C@H]7[C@H](O)[C@@H](O)C(O)O[C@@H]7CO)O[C@@H]6CO)O[C@@H]5CO)O[C@@H]4CO)O[C@@H]3CO)O[C@@H]2CO)[C@H](O)[C@@H](O)[C@@H]1O (some centres unmarked) [Maltoheptose]	recognizes	2.1 mM	b.d.l.	–	–	–	b.d.l.	Products: Maltoheptose [1, 3]: 1.3 mM; Products: Maltohexose [1, 3]: 1 mM; Products: Maltopentaose [1, 3]: 0.4 mM; Products: Maltotetraose [1, 3]: 0.2 mM
OC[C@H]1O[C@H](O[C@H]2[C@H](O)[C@@H](O)[C@@H](O[C@H]3[C@H](O)[C@@H](O)[C@@H](O[C@H]4[C@H](O)[C@@H](O)[C@@H](O[C@H]5[C@H](O)[C@@H](O)[C@@H](O[C@H]6[C@H](O)[C@@H](O)C(O)O[C@@H]6CO)O[C@@H]5CO)O[C@@H]4CO)O[C@@H]3CO)O[C@@H]2CO)[C@H](O)[C@@H](O)[C@@H]1O (some centres unmarked) [Maltohexose]	recognizes	1.7 mM	b.d.l.	–	–	–	b.d.l.	Products: Maltoheptose [1, 6]: 0.1; Products: Maltohexose [1, 3]: 2.1 mM; Products: Maltopentaose [1, 3]: 0.5 mM; Products: Maltotetraose [1, 3]: 0.6 mM
OC[C@H]1O[C@H](O[C@H]2[C@H](O)[C@@H](O)[C@@H](O[C@H]3[C@H](O)[C@@H](O)[C@@H](O[C@H]4[C@H](O)[C@@H](O)C(O)O[C@@H]4CO)O[C@@H]3CO)O[C@@H]2CO)[C@H](O)[C@@H](O)[C@@H]1O (some centres unmarked) [Maltotetraose]	does not act on	b.d.l.	b.d.l.	–	–	–	b.d.l.	Products: Maltotetraose [1, 3]: 5 mM
O=P(O)(O)OP(=O)(O)O [Pyrophosphate]	–	–	–	–	–	–	–	Activity (U/mg protein) ([2]; effector 3 mM): 7.8 U/mg protein; % control [2, 5]: 98%
Glycogen	recognizes	0.5 mM	b.d.l.	–	–	–	b.d.l.	Products: Glycogen [1, 3]: 4.5 mM; Products: Maltoheptose [1, 3]: b.d.l.; Products: Maltohexose [1, 3]: b.d.l.; Products: Maltopentaose [1, 3]: b.d.l.; Products: Maltotetraose [1, 3]: b.d.l.
Maltopentaose	recognizes	1.6 mM	b.d.l.	–	–	–	b.d.l.	Products: Maltohexose [1, 6]: 0.2; Products: Maltoheptose [1, 3]: b.d.l.; Products: Maltopentaose [1, 3]: 2.2 mM; Products: Maltotetraose [1, 3]: 1.0 mM
Maltotriose	does not act on	b.d.l.	b.d.l.	–	–	–	5 mM	–
starch	recognizes	–	–	–	–	–	–	–
